# According to paper PMC11528023, “Transport mechanism and structural pharmacology of human urate transporter URAT1” (Cell Research, 2024):
# Biological target: T1, URAT1 F449A (Homo sapiens, UniProt Q96S37, F449A)
# T1 construct: expressed in transfected cells; host or cells: HEK293 cells (ATCC, CRL-3216), transient transfection
# T1 sequence (Q96S37 1-553 F449A): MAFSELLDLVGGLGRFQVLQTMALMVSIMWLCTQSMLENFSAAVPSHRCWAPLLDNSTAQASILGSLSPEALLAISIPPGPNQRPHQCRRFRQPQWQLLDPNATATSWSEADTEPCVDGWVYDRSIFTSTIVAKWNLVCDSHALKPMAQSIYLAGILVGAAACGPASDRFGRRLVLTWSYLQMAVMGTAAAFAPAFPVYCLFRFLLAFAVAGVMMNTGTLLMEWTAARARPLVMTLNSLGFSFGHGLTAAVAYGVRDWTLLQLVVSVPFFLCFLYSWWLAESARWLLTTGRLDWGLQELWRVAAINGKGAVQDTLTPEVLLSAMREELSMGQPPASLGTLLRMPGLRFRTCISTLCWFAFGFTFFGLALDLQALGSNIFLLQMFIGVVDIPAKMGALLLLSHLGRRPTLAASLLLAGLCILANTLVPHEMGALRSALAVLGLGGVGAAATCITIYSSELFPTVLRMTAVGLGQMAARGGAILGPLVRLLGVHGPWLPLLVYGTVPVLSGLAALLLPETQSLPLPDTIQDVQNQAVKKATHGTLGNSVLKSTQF
# Type: cell-based
# Settings: dose-response of 14C-urate uptake, Fig. 6c
# From the text: Fig. 6 Dotinurad inhibition and the mechanism of URAT1 transport. a Structure of dotinurad-bound URAT1. Detailed interactions between dotinurad and URAT1 are shown on the right. b Dotinurad-binding pocket, depicted in a top view looking down from the extracellular side. c Dose-response curves of URAT1 variants with mutations in the dotinurad-binding site, using the same buffer as defined in Fig. 1 legend. Data are shown as mean ± SD; n = 3 biological replicates. d Comparison between the dotinurad-bound and apo structures. e Schematic diagram of URAT1 importing urate. […]
# Human embryonic kidney (HEK) 293 cells (ATCC, CRL-3216) were seeded onto poly(D-lysine)-coated 96-well plates at a density of 0.3 × 10^5 cells per well and cultured at 37 °C until reaching approximately 70%–80% confluence. […] The cells were then lysed in 0.1 M NaOH, and the lysed samples were added to scintillation liquid to measure radioactivity using a PerkinElmer Microbeta2 counter.
# For dose-response assays, the cells were incubated with urate and increasing concentrations of inhibitors. […] Nonspecific uptake was measured in each plate in non-transfected cells, and this value was subtracted from the total uptake to obtain the URAT1-specific uptake. To compare the uptake signals among URAT1 variants, the mVenus fluorescence intensity of each construct was measured using fluorescence-detection size-exclusion chromatography[49] […]
compound,measurement,value
O=C(c1cc(Cl)c(O)c(Cl)c1)N1CS(=O)(=O)c2ccccc21 [dotinurad],Effect of F449A mutation on drug sensitivity,completely eliminating URAT1’s sensitivity
